{"source": "paper PMC9352027", "about": "“Targeting lipid biosynthesis pathways for hepatitis B virus cure” (PLoS ONE, 2022)", "key": {"HBV genotype C": {"tested_on": "HBV genotype C", "assay": "ACC inhibitor efficacy study in HBV-infected chimeric humanized mice: serum viral markers", "format": "in vivo, human liver-chimeric uPA/SCID mice", "details": "10 mg/kg oral once daily for four weeks, throughout the study", "experimental": "(§1) For the ACC inhibitor efficacy study, HBV-infected mice were randomized into two different treatment groups based on body weight, blood h-Alb, and serum HBV DNA concentrations. All mice had blood h-Alb levels above 12 mg/mL and serum HBV DNA levels above 2.5x10^7 copies/mL. Mice received an oral dose of 10 mg/kg ACC inhibitor or dosing vehicle (vehicle control) once daily for 29 days. ACC inhibitor was dosed in 0.5% sodium carboxymethylcellulose (medium viscosity), 1% w/v ethanol, 98.5% w/v 50 mM Tris buffer, pH 8 in reverse osmosis water (or equivalent). Terminal livers were collected, weighed, and separated into pieces that were flash frozen in liquid nitrogen or immersed in RNAlater solution (Life Technologies, Carlsbad, CA).\n(§2) Whole blood h-Alb was determined using (BioMajestyTM Series JCA-BM6050, JEOL Ltd., Tokyo, Japan). Serum human alanine aminotransferase (h-ALT1) concentration was determined based on Enzyme-Linked ImmunoSorbent Assay (ELISA) developed by Institute of Immunology Co., Ltd. (Tokyo, Japan). […] Serum HBsAg and HBeAg concentration were determined by SRL, Inc. (Tokyo, Japan) based on Chemiluminescent Enzyme Immuno Assay (CLEIA) developed by Fujirebio. […] RNA was isolated from RNAlater®-immersed liver samples with RNeasy kit following manufacturer’s instructions (Qiagen). qRT-PCR on the targeted genes was evaluated by Taqman (Assay IDs Hs04984975_m1 (SREBF1), Hs01682761_m1 (SCD), Hs01005622_m1 (FASN), Hs01046047_m1 (ACACA) and normalized to GAPDH endogenous control (Assay ID 4310884E).\n(§3) Using the same batch of human hepatocytes and HBV virus used for the metabolomic and RNAseq analyses, mice (n = 7/group) were dosed orally eight weeks post HBV infection with vehicle or 10 mg/kg ACC inhibitor once daily for four weeks. HBV viral markers (HBsAg, HBeAg, and HBV DNA) and liver toxicity markers (ALT, h-Alb) were measured weekly (Fig 5A). On-target activity was evaluated by monitoring changes in triglycerides and liver mRNA expression levels of genes in the targeted pathway (Fig 5A)."}, "[1]": {"tested_on": "HBV-infected HepG2-NTCP cells", "assay": "Cell viability by CellTiter Glo", "format": "cell-based, human", "details": "three days of treatment", "experimental": "(§4) Production of wild-type HBV virions from HepAD38 cells was performed as previously described. HepG2-NTCP cells were bulk plated on collagen coated flasks at a density of 6x10^6 cells/ T175 flask. Following a 3-day incubation at 37°C, cells were infected with genotype D (AD38) virus at […] in the presence of 4% PEG8000 and 2.5% DMSO. HepG2-NTCP cells were washed 3 times with OPTI-MEM and maintained in Dulbecco’s modified Eagle’s medium (DMEM) supplemented with 2% FBS and 2.5% DMSO for the following 4 days. HBV-infected HepG2-NTCP cells were trypsinized, resuspended in DMEM supplemented with 2% FBS and 1% DMSO, and seeded onto serially diluted small molecule inhibitors at a 0.5% final DMSO concentration (S1 Table) in 384-well collagen coated plates at a density of 20,000 cells/well for 3 additional days.\nCells were analyzed for cell viability by addition of CellTiter Glo (Promega) to the assay plates and analyzed using an Envision plate reader (Perkin Elmer). CC50 values were calculated from the fit of the dose−response curves to a four-parameter equation. All CC50 values represent geometric mean values of a minimum of four determinations.\n(§5) (A) Schematic overview of the pathways involved in lipid biosynthesis, such as DNL, TG esterification and cholesterol biosynthesis. […] (B-D) HepG2-NTCP cells infected with HBV for three days were treated with selected compounds in an eight-point dose response. After three days of treatment, extracellular HBsAg and HBeAg levels as well as cell viability were measured."}, "[2]": {"tested_on": "triglyceride accumulation in HepG2 cells", "set-up": "method as in PMID 32376414, doi:10.1002/hep.31579", "details": "read-out: palmitic acid-induced triglyceride accumulation EC50; cited from earlier work"}, "[3]": {"details": "two hours post dosing", "experimental": "as §1, with “Terminal livers were collected, weighed, and separated into pieces that were flash frozen in liquid nitrogen or immersed in RNAlater solution (Life Technologies, Carlsbad, CA).” left out\nas §2"}, "DNL in HepG2 cells": {"tested_on": "DNL in HepG2 cells", "set-up": "method as in PMID 32376414, doi:10.1002/hep.31579", "details": "cited from earlier work"}, "[4]": {"format": "in vivo, human liver-chimeric uPA/SCID mice", "details": "10 mg/kg oral once daily for four weeks", "experimental": "All animal work was performed by PhoenixBio Co, Ltd (Higashi-Hiroshima City, Japan). Detailed observations of general condition and individual body weights were conducted once daily throughout the in-life phase. All animal protocols were performed in accordance with the Guide for the Care and Use of Laboratory Animals and approved by the Animal Welfare Committee of Phoenix Bio Co., Ltd. All mice were housed individually and maintained in accordance with the Animal Ethics Committee of PhoenixBio (resolution #2518 and 2552). All surgery was performed under isoflurane anesthesia, and all efforts were made to minimize suffering. On Day 17, Animal ID No. 107 (vehicle-treated) was found dead."}, "ACC": {"tested_on": "ACC", "assay": "On-target activity: serum and liver triglycerides and liver mRNA by qRT-PCR", "format": "in vivo, human liver-chimeric uPA/SCID mice", "details": "10 mg/kg oral once daily, versus vehicle", "experimental": "as §1\nWhole blood h-Alb was determined using (BioMajestyTM Series JCA-BM6050, JEOL Ltd., Tokyo, Japan). Serum human alanine aminotransferase (h-ALT1) concentration was determined based on Enzyme-Linked ImmunoSorbent Assay (ELISA) developed by Institute of Immunology Co., Ltd. (Tokyo, Japan). The real-time detection PCR to measure the serum HBV DNA concentration was performed using the KUBIX HBV qPCR Kit (KUBIX Inc.) and CFX96 Touch™ Real-Time PCR Detection System. […] Serum HBsAg and HBeAg concentration were determined by SRL, Inc. (Tokyo, Japan) based on Chemiluminescent Enzyme Immuno Assay (CLEIA) developed by Fujirebio. Serum and intrahepatic triglycerides analysis were performed by Skylight Biotech Inc. (Akita, Japan). Terminal plasma and liver were collected 2-hours after ACC inhibitor dose for PK analysis which was performed by Charles River Laboratories (Wilmington, MA). RNA was isolated from RNAlater®-immersed liver samples with RNeasy kit following manufacturer’s instructions (Qiagen). qRT-PCR on the targeted genes was evaluated by Taqman (Assay IDs Hs04984975_m1 (SREBF1), Hs01682761_m1 (SCD), Hs01005622_m1 (FASN), Hs01046047_m1 (ACACA) and normalized to GAPDH endogenous control (Assay ID 4310884E).\nas §3"}, "[5]": {"tested_on": "HBeAg in HBV-infected HepG2-NTCP cells", "assay": "microbe, parasite or virus in culture", "format": "cell-based, Hepatitis B virus genotype D (AD38)", "details": "HBV-infected HepG2-NTCP cells, three days of treatment, extracellular; read-out: HBeAg, EC50", "experimental": "as §4\n(§6) Cell culture supernatant (3 μL) was transferred to two 1536-well plates and HBsAg and HBeAg levels subsequently measured by HTRF (Cisbio). HBsAg was measured using Terbium conjugated (XTL-17) and D2 receptor conjugated (XTL19) anti-HBsAg antibodies, while HBeAg was measured using Terbium conjugated (GWB-F19420, Genway Biotech) and D2 receptor conjugated (GWB-24DEF, Genway Biotech) anti-HBeAg antibodies. […] was measured using an Envision plate reader at emissions of 665 nm and 615 nm. The ratio of 665/615 was used to plot compound dose response curves and EC50 values were calculated from the fit of the dose−response curves to a four-parameter equation.\nas §5"}, "[6]": {"tested_on": "HBsAg secretion in HBV-infected HepG2-NTCP cells", "assay": "microbe, parasite or virus in culture", "format": "cell-based, Hepatitis B virus genotype D (AD38)", "details": "HBV-infected HepG2-NTCP cells", "experimental": "as §4, §6, §5"}, "[7]": {"tested_on": "HBsAg secretion in Hep3B cells", "set-up": "method as in PMID 14517078", "details": "depletion of cellular cholesterol; cited from earlier work"}}, "data": [{"smiles": "COc1ccccc1[C@H](Cn1c(=O)n(C(C)(C)C(=O)O)c(=O)c2c(C)c(-c3ncco3)sc21)O[C@H]1CC[C@@H](O)CC1", "note": "[ACC inhibitor, 2-(1-((R)-2-(((1s,4S)-4-hydroxycyclohexyl)oxy)-2-(2-methoxyphenyl)ethyl)-5-methyl-6-(oxazol-2-yl)-2,4-dioxo-1,4-dihydrothieno[2,3-d]pyrimidin-3(2H)-yl)-2-methylpropanoic acid]", "values": [{"measurement": "reduction in serum HBV DNA levels", "setting": "HBV genotype C", "result": "no reduction"}, {"measurement": "reduction in serum HBeAg levels", "setting": "HBV genotype C", "result": "no reduction"}, {"measurement": "reduction in serum HBsAg levels", "setting": "HBV genotype C", "result": "no reduction"}, {"measurement": "CC50", "setting": "[1]", "result": "> 10000", "unit": "nM"}, {"measurement": "EC50", "setting": "[2]", "result": 23, "unit": "nM"}, {"measurement": "Liver exposure over protein-adjusted EC50 (paEC50)", "setting": "[3]; paEC50 based on HepG2-serum free-DNL assay", "result": 4.5, "unit": "fold"}, {"measurement": "Liver exposure", "setting": "[3]; 10 mg/kg oral once daily, HBV-infected chimeric humanized mice", "result": 740, "unit": "nM"}, {"measurement": "EC50", "setting": "DNL in HepG2 cells", "result": 6.6, "unit": "nM"}, {"measurement": "toxicity based on body weight change, serum ALT, and h-Alb levels", "setting": "[4]", "result": "no evidence of toxicity"}, {"measurement": "increase in serum triglycerides", "setting": "ACC; day 17 of treatment", "result": 30, "unit": "%"}, {"measurement": "reduction in liver triglycerides", "setting": "ACC; day 29 of treatment", "result": 40, "unit": "%"}, {"measurement": "liver mRNA expression level of ACACA", "setting": "ACC; qRT-PCR", "result": "statistically significant increase"}, {"measurement": "liver mRNA expression level of FASN", "setting": "ACC; qRT-PCR", "result": "statistically significant increase"}, {"measurement": "liver mRNA expression level of SCD", "setting": "ACC; qRT-PCR", "result": "statistically significant increase"}, {"measurement": "liver mRNA expression level of SREBF1", "setting": "ACC; qRT-PCR", "result": "increased with ACC treatment albeit did not reach statistical significance"}, {"measurement": "EC50", "setting": "[5]", "result": 9600, "unit": "nM"}, {"measurement": "selectivity HBsAg versus HBeAg", "setting": "[6]", "result": "inhibition of HBeAg but at a higher concentration than HBsAg"}, {"measurement": "inhibition of HBsAg secretion", "setting": "[6]; maximal (up to)", "result": "up to 80%"}, {"measurement": "EC50", "setting": "[6]; three days of treatment, extracellular, read-out: HBsAg, EC50", "result": 29, "unit": "nM"}]}, {"smiles": "CC[C@H](C)C(=O)O[C@H]1C[C@@H](C)C=C2C=C[C@H](C)[C@H](CC[C@@H]3C[C@@H](O)CC(=O)O3)[C@H]21", "note": "[lovastatin]", "values": [{"measurement": "HBsAg secretion", "setting": "[7]", "result": "significantly reduced"}]}]}
